Results published in ChEMBL document CHEMBL1145277, “Discovery of 3,3-dimethyl-5-hydroxypipecolic hydroxamate-based inhibitors of aggrecanase and MMP-13” (Bioorg Med Chem Lett, 2005).

Experiments:
Cell line = assay: Inhibitory concentration against TNF-alpha release in LPS-stimulated human whole blood; format: functional, cell-based
Interstitial collagenase = molecular target: T1, Interstitial collagenase (Homo sapiens, UniProt P03956); assay: Inhibitory concentration against Matrix metalloprotease-1 (MMP-1)
T1 sequence (P03956 whole entry): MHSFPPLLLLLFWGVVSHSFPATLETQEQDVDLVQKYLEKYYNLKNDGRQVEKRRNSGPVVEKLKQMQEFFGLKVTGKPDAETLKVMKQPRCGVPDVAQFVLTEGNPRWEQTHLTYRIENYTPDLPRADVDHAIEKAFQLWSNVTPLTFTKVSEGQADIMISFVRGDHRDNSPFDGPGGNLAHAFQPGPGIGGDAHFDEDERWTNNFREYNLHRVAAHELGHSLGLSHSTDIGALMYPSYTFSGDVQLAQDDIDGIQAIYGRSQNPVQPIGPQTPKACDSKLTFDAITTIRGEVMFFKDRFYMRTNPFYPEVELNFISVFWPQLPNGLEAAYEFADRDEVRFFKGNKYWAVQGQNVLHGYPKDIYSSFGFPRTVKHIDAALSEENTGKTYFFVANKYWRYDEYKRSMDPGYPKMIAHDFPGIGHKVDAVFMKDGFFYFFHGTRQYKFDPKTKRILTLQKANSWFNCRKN

[1] = molecular target: Disintegrin and metalloproteinase domain-containing protein 17 (Homo sapiens, UniProt P78536); assay: Inhibitory concentration against TNF-alpha converting enzyme
Collagenase 3 = Collagenase 3 (Homo sapiens, UniProt P45452); assay: Inhibitory concentration against Matrix metalloprotease-13 (MMP-13)
[2] = Inhibitory concentration against Aggrecanase
[3] = Percent inhibition against Aggrecanase at 500 nM

Chain of Disintegrin and metalloproteinase domain-containing protein 17 (P78536 whole entry, the tested form may be a part): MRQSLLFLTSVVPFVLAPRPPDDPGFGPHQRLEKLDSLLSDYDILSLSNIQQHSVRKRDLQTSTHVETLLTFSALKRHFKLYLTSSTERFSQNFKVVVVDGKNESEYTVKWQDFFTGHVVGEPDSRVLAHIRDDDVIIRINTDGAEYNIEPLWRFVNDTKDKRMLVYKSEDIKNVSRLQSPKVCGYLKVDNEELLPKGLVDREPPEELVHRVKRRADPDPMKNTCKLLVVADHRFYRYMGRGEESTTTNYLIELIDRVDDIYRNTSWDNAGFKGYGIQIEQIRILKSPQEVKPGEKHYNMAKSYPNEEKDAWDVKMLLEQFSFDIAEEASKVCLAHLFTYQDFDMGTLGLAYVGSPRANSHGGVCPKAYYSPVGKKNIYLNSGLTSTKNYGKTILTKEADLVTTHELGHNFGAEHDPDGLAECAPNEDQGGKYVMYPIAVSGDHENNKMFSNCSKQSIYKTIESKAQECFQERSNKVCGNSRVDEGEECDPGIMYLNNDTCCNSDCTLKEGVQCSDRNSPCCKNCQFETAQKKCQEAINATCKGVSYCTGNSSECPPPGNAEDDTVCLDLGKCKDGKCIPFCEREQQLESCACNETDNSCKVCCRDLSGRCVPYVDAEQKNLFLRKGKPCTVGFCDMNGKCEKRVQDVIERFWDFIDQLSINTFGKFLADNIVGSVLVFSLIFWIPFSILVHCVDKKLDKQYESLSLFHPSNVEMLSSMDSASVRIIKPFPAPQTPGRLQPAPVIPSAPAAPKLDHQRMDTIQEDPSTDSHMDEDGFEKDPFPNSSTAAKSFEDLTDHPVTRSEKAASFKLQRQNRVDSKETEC

**Q.** For CC1(C)C[C@@H](O)CN(S(=O)(=O)c2ccc(OCc3nccc4ccccc34)cc2)[C@H]1C(=O)NO, which IC50 (Cell line) is on record?
**A.** 2420 nM

**Q.** What about the IC50 (Interstitial collagenase) of the same molecule?
**A.** 290 nM

**Q.** And the IC50 [1]?
**A.** 10 nM

**Q.** And the IC50 (Collagenase 3)?
**A.** 53 nM

**Q.** What about the IC50 [2] of the same molecule?
**A.** > 100 nM

**Q.** For Cc1cnsc1COc1ccc(S(=O)(=O)N2C[C@H](O)CC(C)(C)[C@@H]2C(=O)NO)cc1, which IC50 (Cell line) is on record?
**A.** 4950 nM

**Q.** And the IC50 [1]?
**A.** 16 nM

**Q.** What about the inhibition [3] of the same molecule?
**A.** 55%

**Q.** With Cc1cc(F)ccc1COc1ccc(S(=O)(=O)N2C[C@H](O)CC(C)(C)[C@@H]2C(=O)NO)cc1 as the molecule, how does the IC50 (Cell line) read?
**A.** 5480 nM

**Q.** And the IC50 (Interstitial collagenase)?
**A.** 255 nM

**Q.** What about the IC50 [1] of the same molecule?
**A.** 5.2 nM

**Q.** What about the IC50 (Collagenase 3) of the same molecule?
**A.** 3.5 nM

**Q.** And the IC50 [2]?
**A.** 2.7 nM

**Q.** For CC1(C)C[C@@H](O)CN(S(=O)(=O)c2ccc(OCc3ccccc3Br)cc2)[C@H]1C(=O)NO, which IC50 (Cell line) is on record?
**A.** 8900 nM

**Q.** And the IC50 (Interstitial collagenase)?
**A.** 715 nM

**Q.** What about the IC50 [1] of the same molecule?
**A.** 11 nM

**Q.** And the IC50 (Collagenase 3)?
**A.** 8 nM

**Q.** And the IC50 [2]?
**A.** 16 nM

**Q.** Which IC50 (Cell line) does the source give for Cc1nscc1COc1ccc(S(=O)(=O)N2C[C@H](O)CC(C)(C)[C@@H]2C(=O)NO)cc1 here?
**A.** 5200 nM

**Q.** And the IC50 [1]?
**A.** 12 nM

**Q.** And the inhibition [3]?
**A.** 76%

**Q.** With Cc1c(F)cccc1COc1ccc(S(=O)(=O)N2C[C@H](O)CC(C)(C)[C@@H]2C(=O)NO)cc1 as the molecule, how does the IC50 (Cell line) read?
**A.** 2880 nM

**Q.** And the IC50 (Interstitial collagenase)?
**A.** 679 nM

**Q.** What about the IC50 [1] of the same molecule?
**A.** 17 nM

**Q.** And the IC50 (Collagenase 3)?
**A.** 4.3 nM

**Q.** What about the IC50 [2] of the same molecule?
**A.** 3.9 nM

**Q.** With CCc1ccccc1COc1ccc(S(=O)(=O)N2C[C@H](O)CC(C)(C)[C@@H]2C(=O)NO)cc1 as the molecule, how does the IC50 (Cell line) read?
**A.** 1100 nM

**Q.** And the IC50 (Interstitial collagenase)?
**A.** 1500 nM

**Q.** And the IC50 [1]?
**A.** 6.7 nM

**Q.** And the IC50 (Collagenase 3)?
**A.** 36 nM

**Q.** What about the IC50 [2] of the same molecule?
**A.** 67 nM

**Q.** With Cc1ncccc1COc1ccc(S(=O)(=O)N2C[C@H](O)CC(C)(C)[C@@H]2C(=O)NO)cc1 as the molecule, how does the IC50 (Cell line) read?
**A.** 2000 nM

**Q.** And the IC50 [1]?
**A.** 6.7 nM

**Q.** And the IC50 [2]?
**A.** 91 nM

**Q.** Which results are given for Cc1ccc(F)cc1COc1ccc(S(=O)(=O)N2C[C@H](O)CC(C)(C)[C@@H]2C(=O)NO)cc1?
**A.** IC50 (Cell line): 3450 nM; IC50 (Interstitial collagenase): 790 nM; IC50 [1]: 7.3 nM; IC50 (Collagenase 3): 6.5 nM; IC50 [2]: 40 nM

**Q.** For Cc1ccc(F)cc1COc1ccc(S(=O)(=O)N2C[C@H](O)CC[C@@H]2C(=O)NO)cc1, which IC50 (Cell line) is on record?
**A.** 1400 nM

**Q.** What about the IC50 (Interstitial collagenase) of the same molecule?
**A.** 5100 nM

**Q.** And the IC50 [1]?
**A.** 6.2 nM

**Q.** And the IC50 (Collagenase 3)?
**A.** 2.1 nM

**Q.** And the IC50 [2]?
**A.** 145 nM

**Q.** With Cc1ccccc1COc1ccc(S(=O)(=O)N2C[C@H](O)CC(C)(C)[C@@H]2C(=O)NO)cc1 as the molecule, how does the IC50 (Cell line) read?
**A.** 4900 nM

**Q.** What about the IC50 (Interstitial collagenase) of the same molecule?
**A.** 690 nM

**Q.** What about the IC50 [1] of the same molecule?
**A.** 7.3 nM

**Q.** What about the IC50 (Collagenase 3) of the same molecule?
**A.** 14 nM

**Q.** What about the IC50 [2] of the same molecule?
**A.** 38 nM

**Q.** Which IC50 (Cell line) does the source give for Cc1ccc(COc2ccc(S(=O)(=O)N3C[C@H](O)CC(C)(C)[C@@H]3C(=O)NO)cc2)cc1 here?
**A.** 19200 nM

**Q.** And the IC50 (Interstitial collagenase)?
**A.** 198 nM

**Q.** What about the IC50 [1] of the same molecule?
**A.** 11 nM

**Q.** What about the IC50 (Collagenase 3) of the same molecule?
**A.** 1.2 nM

**Q.** What about the inhibition [3] of the same molecule?
**A.** 19%

**Q.** Which results are given for CC1(C)C[C@@H](O)CN(S(=O)(=O)c2ccc(OCc3ccc(Br)cc3)cc2)[C@H]1C(=O)NO?
**A.** IC50 (Cell line): 7700 nM; IC50 (Interstitial collagenase): 100 nM; IC50 [1]: 10 nM; IC50 (Collagenase 3): 1.4 nM; IC50 [2]: > 100 nM

**Q.** What does the source list for Cc1cccc(COc2ccc(S(=O)(=O)N3C[C@H](O)CC(C)(C)[C@@H]3C(=O)NO)cc2)c1?
**A.** IC50 (Cell line): 25800 nM; IC50 (Interstitial collagenase): 773 nM; IC50 [1]: 12 nM; IC50 (Collagenase 3): 2.8 nM; IC50 [2]: > 100 nM

**Q.** For CC1(C)C[C@@H](O)CN(S(=O)(=O)c2ccc(OCc3ccc(Cl)cc3Cl)cc2)[C@H]1C(=O)NO, which IC50 (Cell line) is on record?
**A.** 31000 nM

**Q.** What about the IC50 (Interstitial collagenase) of the same molecule?
**A.** 430 nM

**Q.** What about the IC50 [1] of the same molecule?
**A.** 19 nM

**Q.** And the IC50 (Collagenase 3)?
**A.** 3 nM

**Q.** And the IC50 [2]?
**A.** 2.1 nM

**Q.** What does the source list for CC1(C)C[C@@H](O)CN(S(=O)(=O)c2ccc(OCc3ccncc3Cl)cc2)[C@H]1C(=O)NO?
**A.** IC50 (Cell line): 10200 nM; IC50 (Interstitial collagenase): 1100 nM; IC50 (Collagenase 3): 19 nM; IC50 [2]: 18 nM

**Q.** For CC(C)c1ccccc1COc1ccc(S(=O)(=O)N2C[C@H](O)CC(C)(C)[C@@H]2C(=O)NO)cc1, which IC50 (Cell line) is on record?
**A.** 1800 nM

**Q.** What about the IC50 (Interstitial collagenase) of the same molecule?
**A.** 2300 nM

**Q.** And the IC50 [1]?
**A.** 12 nM

**Q.** What about the IC50 (Collagenase 3) of the same molecule?
**A.** 188 nM

**Q.** And the inhibition [3]?
**A.** 78%

**Q.** With CC1(C)C[C@@H](O)CN(S(=O)(=O)c2ccc(OCc3ccc(F)cc3Cl)cc2)[C@H]1C(=O)NO as the molecule, how does the IC50 (Cell line) read?
**A.** 10200 nM

**Q.** What about the IC50 (Interstitial collagenase) of the same molecule?
**A.** 592 nM

**Q.** And the IC50 (Collagenase 3)?
**A.** 0.5 nM

**Q.** What does the source list for CC1(C)C[C@@H](O)CN(S(=O)(=O)c2ccc(OCc3ccnc4ccccc34)cc2)[C@H]1C(=O)NO?
**A.** IC50 (Cell line): 950 nM; IC50 (Interstitial collagenase): 170 nM; IC50 (Collagenase 3): 7.8 nM; IC50 [2]: 15 nM

**Q.** With CC1(C)C[C@@H](O)CN(S(=O)(=O)c2ccc(OCc3cccc(Br)c3)cc2)[C@H]1C(=O)NO as the molecule, how does the IC50 (Cell line) read?
**A.** 19000 nM

**Q.** What about the IC50 [1] of the same molecule?
**A.** 15 nM

**Q.** And the inhibition [3]?
**A.** 57%
